Each block holds one compound with its values, some of them ahead of it.
Columns and labels:
[1] = Transisomerization of unsaturated fatty acids in coatings on balloon catheters (FTIR); assay type: physicochemical; conditions: for proportion of trans-fatty acids: after heat treatment (60° C., three hours)
From the text: The natural phospholipids POPC and SLPE, as well as the analogous nitrated phospholipids as shown in example C(PNOPC) and […]), as well as the phospholipids according to examples […], and S as a mono substance and as a combination of the native phospholipids and the corresponding nitro-carboxylic acid (s)-containing phospholipids mixed in a ratio of 1:1 were used for this investigation. Balloon catheters were coated by means of the Langmuir-Schaefer procedure where the balloon segment was aligned longitudinally and coaxial to the solution surface, dipping into the liquid for approx. 1 mm over the entire length. Then the catheter was slowly rotated around its axis 5 times. […] The solution was cooled and given to the coating solution then. In case of incomplete dissolution of the phospholipids or if they separated when cooled, DMSO was added at a concentration of up to 20 vol.-%, preferably up to 10 vol.-%. After coating, the catheters were vacuum dried for 8 hours in order to remove residual solvent. The abrasion or loss of coating layers was determined by weighing the catheter before and after coating as well as after the mechanical stability test in the tubing system as described above using a high precision balance. In order to examine the long-term stability of the coating, catheters coated with phospholipids were sealed with polyethylene glycol 1000 (Roth, Germany). For that purpose PEG 1000 was melted and mixed with a 10% ethanol solution at 50° C. A portion of the phospholipid-coated balloon catheter was coated by means of dip-coating in this PEG solution at 50° C., and dried thereafter for 8 hours. Stability of cis-conformity of unsaturated fatty acids of the phospholipids investigated was determined after heat treatment at 60° C. for three hours in a heating cabinet. After 24 hours and after 2 months the phospholipids coated on the balloon surface were detached and analyzed. Detachment was carried out in 50 ml of a chloroform:methanol mixture (3:1, v: v). A 10 μl aliquot was used for a FTIR spectroscopy. For this purpose the samples were dropped on a ZnSe ATR crystal and then the solvent was evaporated. Degree of transisomerization was determined using the integral of intensity of proton resonance in comparison to that measured from a cis configuration of the reference substances. Measurements were performed 24 hours after coating, heat treatment and after 2 months of storage at 25° C. under sterile room air conditions.

[2] = tested on: sciatic nerve; experiment: Viability of cryopreserved nerve grafts (Annexin-V staining, FACS); assay type: cell-based, rats; conditions: 100 mmolar solution 1 hour, −30° C. 72 hours
[3] = Abrasion stability and traction work load of coated balloon catheters; assay type: physicochemical
Experimental: Balloon catheters were coated by means of the Langmuir-Schaefer procedure where the balloon segment was aligned longitudinally and coaxial to the solution surface, dipping into the liquid for approx. 1 mm over the entire length. Then the catheter was slowly rotated around its axis 5 times. Phospholipids were dissolved at a concentration of 3 mmol in an ion-free aqueous solution at 50° C. The solution was cooled and given to the coating solution then. In case of incomplete dissolution of the phospholipids or if they separated when cooled, DMSO was added at a concentration of up to 20 vol.-%, preferably up to 10 vol.-%. After coating, the catheters were vacuum dried for 8 hours in order to remove residual solvent.
The tubing was filled with a 10% human albumin solution at a temperature of 35° C. The cable system, which had previously been brought through the tubing was connected to the catheter tip and tracked outside the tubing by reversing pulleys, which allowed exactly vertically traction of the cable that was connected to a motorized winch. The winch was mounted on a digital precision balance. The catheters mounted in this manner were pulled through the tubing system and the weight changes measured by the balance, which represented the traction work load achieved for the passage of the catheter, was recorded continuously. These readings were integrated over time. The resultant values allow estimation of the total shear force that occurred during the passage of the catheter through the tubing system.

[4] = Tissue response to coated silicone implants in vivo after bleomycin; set-up: species or system Wistar rats; conditions: silicone cushions, subcutaneous, 7 to 90 days
Experimental: Induction of fibrotic tissue production by connective tissue activation as a consequence of implantation of foreign material was examined in an in-vivo animal model. As implant materials, sterile silicone cushions having a diameter of 1 cm were used.
In male Wistar rats (190-240 g) that were fed and housed under identical conditions for one week, general anaesthesia was performed by intramuscular injection of 0.008 mL/100 g ketamine and 0.004 mL/100 g xylocaln chloride 2%. Then the back of the animals was shaved, sterilized and infiltrated with xylocalne chloride. A paravertebral incision was made on both sides with a length of 1.5 cm followed by preparation of the subcutaneous tissue, so that on both sides approx. 2×2 cm cavities were preformed. Hemostasis was achieved by cauterization, if necessary. Then balls of cotton saturated with Bleomycin (cell-pharm GmbH, Hannover, Germany: 1% in 0.9% NaCl solution) were inserted into the cavities for 3 minutes and then removed. Without rinsing the cavities, the implants coated with a nitrated phospholipid were inserted into the cavity on the left side and the implants coated with natural phospholipid into the cavity on the right side. Thereafter, a layer by layer wound closure was performed and a sterile adhesive bandage was applied.
The animals were kept according to standard conditions for 7, 14, 30, 60 and 90 days. At any study time endpoint, two animals were euthanized. After death the well visible and palpable implants were removed using en-block resection technique. The resected specimens were fixed and embedded in paraffin. Then they were cut in half and the liquid silicone was removed. The specimens were embedded again and cut into thin slices which were stained with H & E and Sirius red, and evaluated by light microscopy. Evaluation was done according to the following criteria:
A1: none; A2: occasional monocytic cells or lymphocytes; A3: moderate numbers or groups of monocytic cells or lymphocytes; A4: dense infiltration of monocytes, eosinophils, or giant cells.
B1: none; B2: collagen-rich layer around the implant; B3: thick (>1 mm) and dense collagen-rich tissue formation around the implant.
In every 10th serial section 10 fields of view uniformly distributed over the circumference of the implant were evaluated and the herein predominant expression was assigned to an event table. In total, 200 fields of view were analyzed per implant

[5] = tested on: HeLa, HUVEC and L929 fibroblast; experiment: cells; assay type: cell-based
Experimental: Physiologically occurring phospholipids can be taken up by virtually all cell lines in large quantities. It is known that phospholipids that contain non-physiologically occurring fatty acid residues can cause cell lyses or death. Three cell lines (HeLa, HUVEC and L929 fibroblast) were cultured in a suitable culture medium of 5% FCS at 37° C. and 5% CO2 concentrations to a subconfluent concentration of 1.5×10^5 cells.
SOPC, DOPC, POPC, ONOPC, PNLPC, and the free fatty acids of OA, LA, NOOA, and NOLA were dissolved in 0.5% DMSO. […] Cell cultures were incubated for 24 h and 48 h. Thereafter, the culture medium was removed and the cells washed twice. Following this, cells suspensions were given in four vials to perform the following analysis:
For the determination of viability, phenol red was added to the suspended cells. After 4 h, the medium was renewed and 10 μl of the MTT solution was added. The cells were cultured for 4 hours, and then a 10% SDS solution was pipetted. After 24 h, absorption of formazan crystals was measured at 500 nm using a power wave X (bio-tek instruments, Inc., USA). For the quantitative comparison of toxicity, the EC50 was determined.

[6] = tested on: cortical neurons; experiment: Hypoxia and reperfusion of cortical neurons (viability, LDH); conditions: for results of the hypoxia experiments compared with reference nitrated phospholipids: neurons and cardiac myocytes, 10 to 50 μmol/l
[7] = tested on: ovarian tissue strips; experiment: Cryopreservation of ovarian tissue strips: intact follicles; conditions: liquid nitrogen 14 days, cultured 14 days
Experimental: Ovar ectomy was performed in female sheep; resected tissues were cut into 60 ovarian tissue strips. The ovarian strips were either cultured directly (n=4) or prepared with a usual solution for vitrification (VS group; Vitrification Kit, Sage, USA) or incubated with nitrated PLs (NPL group). For this purpose, the tissue strips were bathed in an equibrilation solution (ART-8025-A) which consisted of MOPS-buffered amino acids and gentamicin sulfate (10 mg/l), and 7.5% (v/v) of each DMSO and ethylene glycol and 12 mg/ml human serum albumin for 30 minutes. Thereafter the strips of the VS group were placed in the vitrification solution (ART-8025-B), which is a MOPS-buffered solution containing amino acids and gentamicin sulfate, that contain 15% (v/v) each DMSO and ethylenglycol, 12 mg/ml human albumin and 0.6 M sucrose. The strips of the NPL group were placed in a solution containing 25% (v/v) nitrated PL SNOPC or PNLPC in a PBS-buffered 1% DMSO solution containing 5% human albumin for 60 minutes. The treated tissue strips were then immersed into liquid nitrogen and kept here for 14 days. Then removal and warming of the tissue pieces was performed in AIM-V medium (Gibco, Invitrogen) in a sterile culture dish, first up to 5° C. within 20 minutes, then heated further in a water bath up to 37° C., within the following 60 minutes. The culture medium was replaced and specimens cultured for 14 days. After this, the tissue pieces were fixed, embedded in paraffin and cut, followed by histological examination. […] The total number of intact follicles in the control group was taken as a reference to the number of follicles in the cryopreserved groups.
The culture medium has been exchanged by every 2nd day; samples for hormone analysis were taken and frozen at that time. Determination of 17 β-estradiol and progesterone were performed with a radio-immuno assay (diagnostic systems laboratories, USA).

[8] = tested on: Cardiac muscle cells derived from neonatal rat heart; experiment: Hypoxia of cardiac muscle cells (viability, mitochondrial NAD+); assay type: cell-based; conditions: for mitochondrial NAD+ content: hypoxia, baseline 5
Experimental: Cardiac muscle cells derived from neonatal rat heart (Nitobe J, et al, Reactive oxygene species regulate FLICE inhibitory protein and susceptibility to FAS-mediated apoptosis in cardiac myocytes. Cardiovasc RES 2003, 119-28). The heart muscle cells were cultured in Dulbecco/Eagle medium (DMEM) with 10% FCS added under standard conditions for two days. Incubation with the natural and nitrated phospholipids, as well as the hypoxia experiments were carried out as described above. Incubated cells were grown in culture medium under standard conditions for 24 hours. This is followed by a vitality staining as described above. […] The frozen cells were thawed up to -4° C. and homogenized for subsequent NAD^+ analyses. By means of differential centrifuge, pellets containing mitochondria were separated (Di Lisa, et al, 1993; Am. J. Physiol. 264, […]-[…]). The NAD^+ content was determined by fluoroscopy, and normalized to the protein content (Veloso, D., and […]., 1974;) Anal. Biochem., 449-450).

[9] = top coating with PEG, after 2 month

Compound: CCCCCCCC/C=C(\CCCCCCCC(=O)OC[C@H](COP(=O)(O)O)OC(=O)CCCCCCC/C(=C\CCCCCCCC)[N+](=O)[O-])[N+](=O)[O-] [Example G, 1,2-di-(9-nitrooleoyl)-sn-3-glycerophosphate]
mechanical removal of coating substance and workload to pull the catheter through PTFE tubing [3]: Very similar results
biocompatibility of coated implants compared to natural PLs [4]: improved biocompatibility of implants several-fold

Compound: CCCCCCCC/C=C\CCCCCCCC(=O)OC[C@H](COP(=O)([O-])OCC[N+](C)(C)C)OC(=O)CCCCCCC/C(=C\CCCCCCCC)[N+](=O)[O-] [Example P15, 1-oleoyl-2-(E-9-nitrooleoyl)-sn-3-glycerophosphocholine]
total viability (MTT assay) [5]: 83%
EC50 ([5]; after 48 hours, range over cell lines, read-out: EC50 (MTT assay)): 0.8 to 5 mM

Compound: CCCCCCCC/C=C(\CCCCCCCC(=O)O[C@H](COC(=O)CCCCCCCCCCCCCCC)COP(=O)([O-])OCC[N+](C)(C)C)[N+](=O)[O-] [Example C, (E)-1-Palmitoyl-2-(9-nitrooleoyl)-sn-3-glycerophosphocholine]
proportion of trans-fatty acids [1]: 25%
degree of transisomerization ([1]; coatings after 2 months): 30%
degree of transisomerization [1, 9]: 32%
results of the hypoxia experiments compared with reference nitrated phospholipids [6]: did not show relevant differences

Compound: CC/C=C(\C/C=C\C/C=C\CCCCCCCC(=O)O[C@H](COC(=O)CCCCCCC/C=C\C/C=C\CCCCC)COP(=O)([O-])OCC[N+](C)(C)C)[N+](=O)[O-] [Example P12, 1-linoleoyl-2-(E-15-nitro-α-linolenoyl)-sn-3-glycerophosphocholine]
biocompatibility of coated implants compared to natural PLs [4]: improved biocompatibility of implants several-fold
rate of intact follicles relative to the control group [7]: 91%

Compound: CCCCCCCCC(O)C(CCCCCCCC(=O)OC[C@H](COP(=O)([O-])OCC[N+](C)(C)C)OC(=O)CCCCCCCC(C(O)CCCCCCCC)[N+](=O)[O-])[N+](=O)[O-] (stereo partly drawn) [Example O1, 1,2-di-(9-nitro-10-hydroxy-stearoyl)-sn-3-glycerophosphocholine]
mechanical removal of coating substance and workload to pull the catheter through PTFE tubing [3]: Very similar results
results of the hypoxia experiments compared with reference nitrated phospholipids [6]: slightly worse results

Compound: CCCCC/C=C\C/C=C\CCCCCCCC(=O)O[C@H](COC(=O)CCCCCCCCCCCCCCC)COP(=O)([O-])OCC[N+](C)(C)C [PLPC, 1-Palmitoyl-2-linoleoyl-sn-glycero-3-PC, reference compound]
loss of viability of heart muscle cells after hypoxia ([8]; (10 minutes)): 16%
loss of viability of heart muscle cells after hypoxia ([8]; (30 minutes)): 42%
mitochondrial NAD+ content ([8]; first printed value): 2.4 nmol/mg protein
mitochondrial NAD+ content ([8]; second printed value): 0.7 nmol/mg protein
increase in LDH versus normoxemia culture ([6]; 10-minutes ischemia): 380 fold
viability of cortical cells measured after 24 hours ([6]; 10-minutes ischemia): 30%
increase in LDH versus normoxemia culture ([6]; 30-minutes ischemia): 630 fold
viability of cortical cells measured after 24 hours ([6]; 30-minutes ischemia): 0%

Compound: 1,2-di-(9-nitrolinoleoyl)-sn-3-glycerophosphocholine, 1,2-di-(10-nitrolinoleoyl)-sn-3-glycerophosphocholine, 1-(9-nitrolinoleoyl)-2-(10-nitrolinoleoyl)-sn-3-glycerophosphocholine and 1-(10-nitrolinoleoyl)-2-(9-nitrolinoleoyl)-sn-3-glycerophosphocholine [Example N8]
biocompatibility of coated implants compared to natural PLs [4]: improved biocompatibility of implants several-fold

Compound: 1,2-di-(9-nitrolinoleoyl)-sn-3-glycerophosphocholine, 1,2-di-(10-nitrolinoleoyl)-sn-3-glycerophosphocholine, 1-(9-nitrolinoleoyl)-2-(10-nitrolinoleoyl)-sn-3-glycerophosphocholine and 1-(10-nitrolinoleoyl)-2-(9-nitrolinoleoyl)-sn-3-glycerophosphocholine [Example N1]
mechanical removal of coating substance and workload to pull the catheter through PTFE tubing [3]: Very similar results
rate of intact follicles relative to the control group [7]: 93%

Now from value to compound, other results behind:

proportion of trans-fatty acids [1]: 86%
degree of transisomerization ([1]; coatings after 2 months): 98%
degree of transisomerization [1, 9]: 92%
Compound: CCCCC/C=C\C/C=C\CCCCCCCC(=O)O[C@H](COC(=O)CCCCCCCCCCCCCCCCC)COP(=O)(O)OCCN [SLPE, 1-Stearoyl-2-linoleoyl-sn-3-glycero-phosphatidylethanolamine, reference compound]
proportion of living cells relative to non-frozen control [2]: 15%

proportion of trans-fatty acids [1]: 28%
degree of transisomerization ([1]; coatings after 2 months): 32%
degree of transisomerization [1, 9]: 33%
Compound: CCCCC/C=C\C/C=C(\CCCCCCCC(=O)O[C@H](COC(=O)CCCCCCCCCCCCCCCCC)COP(=O)(O)OCCN)[N+](=O)[O-] [Example R, 1-Stearoyl-2-(E-9-nitrolinoleoyl)-sn-3-glycerophosphatidylethanolamine]
biocompatibility of coated implants compared to natural PLs [4]: improved biocompatibility of implants several-fold
proportion of living cells relative to non-frozen control [2]: 75%
proportion of living cells relative to non-frozen control ([2]; listed as SNLPE): 80%

mechanical removal of coating substance and workload to pull the catheter through PTFE tubing [3]: Very similar results
Compound: 1-stearoyl-2-(10-nitrolinoleoyl)-sn-3-glycerophosphocholine and 1-stearoyl-2-(9-nitrolinoleoyl)-sn-3-glycerophosphocholine [Example P2]
biocompatibility of coated implants compared to natural PLs [4]: improved biocompatibility of implants several-fold
proportion of living cells relative to non-frozen control [2]: 82%
rate of intact follicles relative to the control group [7]: 85%

mechanical removal of coating substance and workload to pull the catheter through PTFE tubing [3]: Very similar results
Compound: 1-(5,8,11-eicosatrienoyl)-2-(9-nitro-α-linolenoyl)-sn-3-glycerophosphocholine and 1-(5,8,11-eicosatrienoyl)-2-(10-nitro-α-linolenoyl)-sn-3-glycerophosphocholine [Example P5]
rate of intact follicles relative to the control group [7]: 90%
